In PMC11089561, “Structural Investigations of Phthalazinone Derivatives as Allosteric Inhibitors of Human DNA Methyltransferase 3A” (ACS Medicinal Chemistry Letters, 2024):

Legend:
[1] = biological target: T1, DNMT3A_CD (catalytic domain of DNMT3A) (Homo sapiens, UniProt Q9Y6K1); experiment: In vitro methylation assay, IC50 determination ([3H]-SAM, poly dI-dC); format: biochemical; conditions: 150 nM DNMT3A, 10 uM SAM, 10 uM poly dI-dC; 1 hour preincubation; Hill slope constrained to -2
T1 construct: The catalytic domain of DNMT3A (residues 634 -912) were used for all experiments; made in house; host or cells: E. coli NiCo21 (DE3) (NEB)
Description: Expression and Purification of DNMT3A_CD
The catalytic domain of DNMT3A (residues 634 -912) were used for all experiments […]
DNMT3A_CD was expressed in NiCo21 (DE3) cells (NEB) using a codon optimized plasmid pET28a-hDNMT3A_CD (∆1-611). Cell cultures were grown in LB medium at 37 °C to an OD600 = 0.8. Cultures were cooled to 25 °C, then expression was induced by the addition of 1 mM IPTG (Gold Biotechnology). Cells were harvested by centrifugation after 5 hours and flash frozen in liquid nitrogen for storage at -80 °C.
Cells were resuspended in lysis buffer containing 50 mM K2HPO4/KH2PO4, 500 mM NaCl, 50 mM imidazole, 10% glycerol [v/v], 1 mM EDTA and 1 mM PMSF at pH 7.8.
Sonication was used for lysis and the supernatant was collected after centrifugation at 18,000 x g for 1 hour. Lysates were applied to an ÄKTA start FPLC system (GE healthcare) and loaded onto a 1 mL HisTrap Excel column (Cytiva). The column was washed with 50 mL of lysis […]
(§1) buffer and eluted with an identical buffer containing a higher imidazole concentration of 500 mM. Eluted protein was desalted with a 5 mL HiTrap Desalting column (Cytiva) and flash frozen in liquid nitrogen for storage at -80 °C. DNMT3A_CD concentration was determined using UV-vis with an extinction coefficient determined by protparam of 38,180 M-1 cm-1 to represent the monomeric state.
(§2) In Vitro Methylation Assays
(§3) Methylation assays were used to determine nanomolar amounts of methylated DNA product. Reactions were carried out in 50 mM K2HPO4/KH2PO4 at pH 7.8, 1 mM EDTA, 1 mM DTT, 0.2 mg/mL BSA, 20 mM NaCl, 150 nM DNMT3A_CD, 10 uM poly dI-dC (Sigma Aldrich), and 10 uM SAM (Sigma Aldrich) unless otherwise stated. The SAM cofactor was diluted with [3H]-SAM from PerkinElmer in 10 mM H2SO4. All inhibitors were dissolved and diluted in DMSO prior to addition to methylation reactions. Reactions with and without […]
All reactions containing inhibitors were preincubated with DNMT3A and inhibitor for 1 hour. Reactions were activated with poly dI-dC to a final volume of 20 uL, then incubated at 37 °C for 1 hour. Reaction aliquots were spotted on Hybond-N+ membranes (GE healthcare), then washed with 50 mM K2HPO4/KH2PO4 at pH 7.8 and ethanol. Membranes were dried and counted using a Hidex LS 300 scintillation counter. […]
Determination of IC50 Value
Percent activity of methylation assays was determined by comparing activities of assays with inhibitor to assays without inhibitor. Sigmoidal dose-response curves of percent activity vs compound concentration were fitted in Prism 10.
All assays were performed in triplicate, with additional repetitions added as necessary. […]
14). Reactions consisted of 150 nM DNMT3A, 10 uM SAM, and 10 uM poly dI -dC. The data

[2] = parameters: method as in PMID 26935942; conditions: versus FDA-approved inhibitors (azacytidine and decitabine); cited from earlier work
[3] = biological target: T1, DNMT3A_CD (catalytic domain of DNMT3A); experiment: Kinetics studies: methylation assays with varied SAM or poly dI-dC, fit to inhibition models; format: biochemical; conditions: for α coefficient from mixed-type inhibition model, varied SAM: SAM varied 0.15-10 uM, poly dI-dC 10 uM; for α coefficient from mixed-type inhibition model, varied SAM / α coefficient from mixed-type inhibition model, varied DNA: α < 1 = preference for enzyme-substrate complex; for α coefficient from mixed-type inhibition model, varied DNA: poly dI-dC varied 0.15-10 uM, SAM 10 uM; for Best fit inhibition model: with DNA and SAM varied, R2 comparison and F-test, p-value < 0.0001
Text: Using methylation assays with and without inhibitor and varied concentrations of DNA or SAM, we generated nonlinear Michaelis–Menten curves with corresponding double-reciprocal plots (Figure S2) and fit them to classical inhibition models. […] By analyzing double-reciprocal plots, this mechanistic model was confirmed because the changes in y-intercept and slope are inconsistent with competitive and uncompetitive forms of inhibition, respectively. […] Furthermore, the selected analogs also bind more tightly to the enzyme–substrate complex than to the free enzyme with both DNA and SAM (Table S2). This preference could be beneficial since DNMT3A bound to DNA is likely the dominant species in a cellular context. […]
as §1, §2, §3
All reactions containing inhibitors were preincubated with DNMT3A and inhibitor for 1 hour. Reactions were activated with poly dI-dC to a final volume of 20 uL, then incubated at 37 °C for 1 hour. Reaction aliquots were spotted on Hybond-N+ membranes (GE healthcare), then washed with 50 mM K2HPO4/KH2PO4 at pH 7.8 and ethanol. Membranes were dried and counted using a Hidex LS 300 scintillation counter.
In vitro methylation assays were performed as described above using two concentrations of inhibitor (0 uM and ~IC50) and varied concentrations of substrate SAM or poly dI-dC while the other substrate is held at a saturating concentration of 10 uM. For the variation of SAM, concentrations of 0.15, 0.25, 0.5, 1, 3 and 10 uM were used, while for the variation of poly dI-dC concentrations of 0.15, 0.25, 0.5, 1, 2.5, and 10 uM were used. Data was fitted globally with Prism 10 and best-fit inhibition models were determined using an F-test (p < 0.0001).
Lineweaver-Burke plots were generated and fit to a linear regression model. Data represent the mean and standard deviation of three independent reactions. […]
Figure S2: Double reciprocal plots for 1a (A, B), 3 (C, D), 4 (E, F), 5 (G, H), and 10 (I, J) with DNA and SAM. The data points represent the mean and standard deviation of three independent reactions. Reactions were done at initial velocity conditions using 150 nM DNMT3A, and varied concentrations of one substrate (0.15 –10 uM) while the other was saturated at 10 uM. Linear fits […]
competitive inhibition and uncompetitive inhibition respectively.
(1 picture or pasted object on this page, not shown here) […]
coefficient is a measure of the inhibitor’s preference for E and ES kinetic species.
Table S1: Determination of best fit inhibition models for 1a, 3, 4, 5, and 10 by R2 comparison […]
Most of the inhibitors have α < 1, where the inhibitor prefers the enzyme-substrate complex. […]

[4] = test system: acute myeloid leukemia cell; parameters: method as in PMID 35866897; conditions: cited from earlier work
DNMT3A = biological target: DNMT3A; parameters: method as in PMID 33705897; conditions: with SAM; read-out: Ki with S-adenosyl methionine (SAM, AdoMet); cited from earlier work

T1 sequence (Q9Y6K1 634-912): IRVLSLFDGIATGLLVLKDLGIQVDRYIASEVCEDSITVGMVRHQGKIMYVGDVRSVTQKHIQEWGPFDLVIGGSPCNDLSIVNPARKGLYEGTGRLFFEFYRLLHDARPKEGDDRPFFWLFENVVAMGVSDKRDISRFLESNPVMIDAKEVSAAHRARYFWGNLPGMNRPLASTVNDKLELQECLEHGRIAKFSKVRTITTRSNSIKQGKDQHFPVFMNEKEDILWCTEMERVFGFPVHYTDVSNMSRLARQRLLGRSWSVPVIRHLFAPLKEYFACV

For COc1ccc(C2=NN(C3CCCCCC3)C(=O)[C@@H]3CC=CC[C@H]23)cc1OCCCCOc1ccc(-c2nnn[nH]2)cc1 [Compound 1a], the IC50 [1] is given as 14 ± 2 µM, the Cytotoxicity [2] is given as “significantly less cytotoxic than FDA-approved inhibitors” and the “α coefficient from mixed-type inhibition model, varied SAM” value [3] is given as < 1. For the same compound, the “α coefficient from mixed-type inhibition model, varied DNA” value [3] was < 1, the “Best fit inhibition model” value [3] was “mixed-type inhibition model” and the AML cell differentiation [4] was “induce acute myeloid leukemia cell differentiation”. For the same compound, the Ki (DNMT3A) was 9.16 to 18.9 µM.
For COc1ccc(C2=NN(C3CCCCCC3)C(=O)C2(C)C)cc1OCCCCOc1ccc(-c2nnn[nH]2)cc1 [Compound 1b], the Cytotoxicity [2] is listed as “significantly less cytotoxic than FDA-approved inhibitors”, the AML cell differentiation [4] is listed as “induce acute myeloid leukemia cell differentiation” and the Ki (DNMT3A) is listed as 3.7 to 7.06 µM.
With COc1ccc(C2=NN(C3CCCCCC3)C(=O)[C@@H]3CC=CC[C@H]23)cc1OCCCCOc1ccc(C#N)cc1 [Compound 2] the IC50 [1] was > 300 µM.
For COc1ccc(C2=NN(C3CCCCCC3)C(=O)[C@@H]3CC=CC[C@H]23)cc1OCCCCOc1ccc(C(=O)O)cc1 [Compound 3], the IC50 [1] was 23 µM, the “α coefficient from mixed-type inhibition model, varied DNA” value [3] was > 1 and the “Best fit inhibition model” value [3] was “mixed-type inhibition model”.
For O=C1[C@@H]2CC=CC[C@@H]2C(c2cccc(OCCCCOc3ccc(-c4nn[nH]n4)cc3)c2)=NN1C1CCCCCC1 [Compound 4], the IC50 [1] was 10 µM and the “Best fit inhibition model” value [3] was “mixed-type inhibition model”.
With CN1N=C(c2cccc(OCCCCOc3ccc(-c4nn[nH]n4)cc3)c2)[C@H]2CC=CC[C@H]2C1=O [Compound 5] the IC50 [1] was 41 µM and the “Best fit inhibition model” value [3] was “mixed-type inhibition model”.
With O=C1[C@@H]2CC=CC[C@@H]2C(c2cccc(OCCCCOc3ccc(-c4nn[nH]n4)cc3)c2)=NN1Cc1ccccc1 [Compound 6] the IC50 [1] was 13 µM.
Work on O=C1[C@@H]2CC=CC[C@@H]2C(c2cccc(OCCCCOc3ccc(-c4nn[nH]n4)cc3)c2)=NN1Cc1ccc(F)c(F)c1 [Compound 7] yielded an IC50 [1] of 18 µM.
In the case of O=C1[C@@H]2CC=CC[C@@H]2C(c2cccc(OCCCOc3ccc(-c4nn[nH]n4)cc3)c2)=NN1C1CCCCCC1 [Compound 8], the IC50 [1] is reported as 11 µM.
O=C1[C@@H]2CC=CC[C@@H]2C(c2cccc(OCCCCCOc3ccc(-c4nn[nH]n4)cc3)c2)=NN1C1CCCCCC1 [Compound 9] showed an IC50 [1] of 9 µM.
For O=C1[C@@H]2CC=CC[C@@H]2C(c2cccc(OC/C=C\COc3ccc(-c4nn[nH]n4)cc3)c2)=NN1C1CCCCCC1 [Compound 10], the IC50 [1] was 11 µM, the “α coefficient from mixed-type inhibition model, varied SAM” value [3] was > 1 and the “Best fit inhibition model” value [3] was “mixed-type inhibition model”.
In the case of O=C1[C@@H]2CC=CC[C@@H]2C(c2cccc(OC/C=C/COc3ccc(-c4nn[nH]n4)cc3)c2)=NN1C1CCCCCC1 [Compound 11], the IC50 [1] is reported as 13 µM.
Work on O=C(COc1cccc(C2=NN(C3CCCCCC3)C(=O)[C@@H]3CC=CC[C@H]23)c1)Nc1ccc(-c2nn[nH]n2)cc1 [Compound 12] yielded an IC50 [1] of 38 µM.
In the case of O=c1c2ccccc2c(-c2cccc(OCCCCOc3ccc(-c4nn[nH]n4)cc3)c2)nn1C1CCCCCC1 [Compound 13], the IC50 [1] is reported as 13 µM.
In the case of c1ccc(OCCCCOc2ccc(-c3nn[nH]n3)cc2)cc1 [Compound 14], the IC50 [1] is reported as > 100 µM.
